From patent publication US20250312462A1, “PAK1 DEGRADERS AND METHODS OF USE THEREOF” (INSTITUTE FOR CANCER RESEARCH D/B/A THE RESEARCH INSTITUTE …, priority 2022, published 2025)

How the values were obtained:
Assay in all cases: KINOMEscan
Conditions in all cases: read-out: Percent Control
PCTK1 = PCTK1 (Homo sapiens, UniProt Q00536)
Protocol: (§1) The kinase engagement assay (KINOMEscan®) was performed by DiscoverX assessing binding abilities toward a set of kinases.

DCAMKL2 = DCAMKL2 (Homo sapiens, UniProt Q8N568)
Protocol: as §1

CLK3 = CLK3 (Homo sapiens, UniProt P49761)
Protocol: as §1

PKN1 = PKN1 (Homo sapiens, UniProt Q16512)
Protocol: as §1

PLK1 = PLK1 (Homo sapiens, UniProt P53350)
Protocol: as §1

PIK3CA(E545K) = PIK3CA(E545K) (Homo sapiens, UniProt P42336, E545K)
PIK3CA(E545K), sequence (P42336 whole entry E545K): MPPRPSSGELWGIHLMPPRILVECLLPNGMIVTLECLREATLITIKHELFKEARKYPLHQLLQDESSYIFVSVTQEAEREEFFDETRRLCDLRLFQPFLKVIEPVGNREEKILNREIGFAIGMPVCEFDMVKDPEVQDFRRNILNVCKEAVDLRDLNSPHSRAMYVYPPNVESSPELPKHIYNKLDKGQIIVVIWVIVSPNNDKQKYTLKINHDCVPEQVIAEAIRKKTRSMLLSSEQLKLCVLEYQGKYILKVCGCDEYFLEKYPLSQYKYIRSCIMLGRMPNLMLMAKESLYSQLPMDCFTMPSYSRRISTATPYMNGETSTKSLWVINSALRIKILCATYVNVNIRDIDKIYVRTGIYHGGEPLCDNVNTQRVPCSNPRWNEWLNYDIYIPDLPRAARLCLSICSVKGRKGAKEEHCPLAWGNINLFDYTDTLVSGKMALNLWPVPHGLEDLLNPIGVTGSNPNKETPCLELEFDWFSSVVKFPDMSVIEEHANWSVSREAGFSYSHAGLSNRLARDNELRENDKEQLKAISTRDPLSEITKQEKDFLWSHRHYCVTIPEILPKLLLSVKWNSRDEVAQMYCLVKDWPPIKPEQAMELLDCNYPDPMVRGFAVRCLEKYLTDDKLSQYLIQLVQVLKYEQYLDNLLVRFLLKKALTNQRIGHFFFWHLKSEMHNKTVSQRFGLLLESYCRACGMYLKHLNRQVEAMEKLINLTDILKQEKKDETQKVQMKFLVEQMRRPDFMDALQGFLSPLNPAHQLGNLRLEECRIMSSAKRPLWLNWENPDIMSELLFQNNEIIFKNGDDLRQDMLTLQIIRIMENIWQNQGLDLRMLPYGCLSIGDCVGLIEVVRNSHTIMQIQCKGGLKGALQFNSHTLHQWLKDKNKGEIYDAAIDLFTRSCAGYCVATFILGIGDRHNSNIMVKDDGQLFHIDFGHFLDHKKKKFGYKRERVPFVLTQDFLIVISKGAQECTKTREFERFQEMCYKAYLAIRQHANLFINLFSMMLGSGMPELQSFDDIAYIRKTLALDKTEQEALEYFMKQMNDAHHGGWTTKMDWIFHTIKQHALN
Protocol: as §1

TIE2 = TIE2 (Homo sapiens, UniProt Q02763)
Protocol: as §1

KIT(V559D) = KIT(V559D) (Homo sapiens, UniProt P10721, V559D)
Protocol: as §1

CDK4 = CDK4 (Homo sapiens, UniProt P11802)
Protocol: as §1

NEK6 = NEK6 (Homo sapiens, UniProt Q9HC98)
Protocol: as §1

TSSK3 = TSSK3 (Homo sapiens, UniProt Q96PN8)
TSSK3, sequence (Q96PN8 whole entry): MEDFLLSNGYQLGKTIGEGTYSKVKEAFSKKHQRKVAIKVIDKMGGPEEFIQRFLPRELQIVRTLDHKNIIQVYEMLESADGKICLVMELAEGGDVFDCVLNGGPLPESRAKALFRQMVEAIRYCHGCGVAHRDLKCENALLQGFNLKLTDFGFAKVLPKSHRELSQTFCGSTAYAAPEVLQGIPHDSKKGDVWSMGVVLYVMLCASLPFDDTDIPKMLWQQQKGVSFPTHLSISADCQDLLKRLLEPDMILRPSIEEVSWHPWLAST
Protocol: as §1

MTOR = MTOR (Homo sapiens, UniProt P42345)
Protocol: as §1

ABL1-phosphorylated = ABL1-phosphorylated (Homo sapiens, UniProt P00519)
Protocol: as §1

ROCK2 = ROCK2 (Homo sapiens, UniProt O75116)
ROCK2, sequence (O75116 whole entry): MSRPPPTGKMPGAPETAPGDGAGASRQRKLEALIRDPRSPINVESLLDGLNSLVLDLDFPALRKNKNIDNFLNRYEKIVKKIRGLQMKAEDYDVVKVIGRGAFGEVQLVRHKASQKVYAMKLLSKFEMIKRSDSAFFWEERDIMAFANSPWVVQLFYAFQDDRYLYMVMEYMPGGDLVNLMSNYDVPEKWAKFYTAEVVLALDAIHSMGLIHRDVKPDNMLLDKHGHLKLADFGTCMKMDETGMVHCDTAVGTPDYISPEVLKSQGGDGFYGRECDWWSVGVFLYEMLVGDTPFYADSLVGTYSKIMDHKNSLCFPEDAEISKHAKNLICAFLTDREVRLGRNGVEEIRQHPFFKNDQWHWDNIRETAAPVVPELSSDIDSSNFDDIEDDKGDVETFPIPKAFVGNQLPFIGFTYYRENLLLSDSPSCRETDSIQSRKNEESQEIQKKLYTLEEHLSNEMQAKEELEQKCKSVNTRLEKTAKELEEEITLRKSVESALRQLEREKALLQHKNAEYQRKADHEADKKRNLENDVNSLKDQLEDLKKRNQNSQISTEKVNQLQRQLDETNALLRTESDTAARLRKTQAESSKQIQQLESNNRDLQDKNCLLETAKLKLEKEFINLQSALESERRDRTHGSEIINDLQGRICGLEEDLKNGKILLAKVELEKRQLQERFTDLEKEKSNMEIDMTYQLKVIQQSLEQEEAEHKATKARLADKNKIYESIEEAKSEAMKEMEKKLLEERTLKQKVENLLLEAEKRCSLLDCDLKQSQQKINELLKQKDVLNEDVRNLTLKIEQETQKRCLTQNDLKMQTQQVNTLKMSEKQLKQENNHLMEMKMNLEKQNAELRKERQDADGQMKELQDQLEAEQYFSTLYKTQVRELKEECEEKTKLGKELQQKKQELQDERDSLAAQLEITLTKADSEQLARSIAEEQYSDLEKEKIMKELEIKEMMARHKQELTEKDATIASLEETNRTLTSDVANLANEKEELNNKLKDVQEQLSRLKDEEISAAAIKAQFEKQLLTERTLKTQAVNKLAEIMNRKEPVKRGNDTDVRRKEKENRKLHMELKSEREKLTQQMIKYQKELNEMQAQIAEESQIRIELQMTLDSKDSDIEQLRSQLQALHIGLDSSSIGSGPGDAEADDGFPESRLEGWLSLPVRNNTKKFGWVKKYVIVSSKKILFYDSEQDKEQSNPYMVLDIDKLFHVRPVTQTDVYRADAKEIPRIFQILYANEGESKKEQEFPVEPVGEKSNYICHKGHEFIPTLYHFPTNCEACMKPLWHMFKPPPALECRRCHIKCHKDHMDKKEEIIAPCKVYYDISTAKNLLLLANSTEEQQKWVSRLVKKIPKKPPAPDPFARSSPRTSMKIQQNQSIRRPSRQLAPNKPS
Protocol: as §1

[1] = target: EGFR(L747-E749del, A750P) (Homo sapiens, UniProt P00533, A750P/DEL747-749)
Protocol: as §1

TEC = TEC (Homo sapiens, UniProt P42680)
Protocol: as §1

RIPK5 = RIPK5 (Homo sapiens, UniProt Q6XUX3)
RIPK5, sequence (Q6XUX3 whole entry): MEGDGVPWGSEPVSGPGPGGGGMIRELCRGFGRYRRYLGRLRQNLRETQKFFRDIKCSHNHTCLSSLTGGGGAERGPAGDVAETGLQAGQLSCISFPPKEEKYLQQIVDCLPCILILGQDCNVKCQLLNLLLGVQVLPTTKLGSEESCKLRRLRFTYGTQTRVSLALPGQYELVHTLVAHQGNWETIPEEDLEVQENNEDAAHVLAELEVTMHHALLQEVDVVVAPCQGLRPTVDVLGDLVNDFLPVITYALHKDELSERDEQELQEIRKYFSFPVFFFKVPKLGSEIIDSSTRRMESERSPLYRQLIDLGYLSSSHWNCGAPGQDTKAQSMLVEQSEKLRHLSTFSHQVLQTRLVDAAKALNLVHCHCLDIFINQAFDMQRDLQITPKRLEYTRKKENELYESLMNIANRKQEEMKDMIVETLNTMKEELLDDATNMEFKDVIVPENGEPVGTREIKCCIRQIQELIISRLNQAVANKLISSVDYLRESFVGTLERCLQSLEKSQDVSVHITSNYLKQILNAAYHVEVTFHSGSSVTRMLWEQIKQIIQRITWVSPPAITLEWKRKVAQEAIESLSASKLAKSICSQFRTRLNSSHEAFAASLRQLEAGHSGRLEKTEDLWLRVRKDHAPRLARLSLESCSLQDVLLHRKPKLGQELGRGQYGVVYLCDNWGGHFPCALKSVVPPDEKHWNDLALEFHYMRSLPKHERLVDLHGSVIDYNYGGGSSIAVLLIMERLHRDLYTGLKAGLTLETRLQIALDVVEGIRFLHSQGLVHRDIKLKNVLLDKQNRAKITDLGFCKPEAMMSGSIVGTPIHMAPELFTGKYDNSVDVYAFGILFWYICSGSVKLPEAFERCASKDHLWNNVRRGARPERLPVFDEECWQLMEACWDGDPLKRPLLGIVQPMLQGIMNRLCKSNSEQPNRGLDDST
Protocol: as §1

PDPK1 = PDPK1 (Homo sapiens, UniProt O15530)
Protocol: as §1

PRKR = PRKR (Homo sapiens, UniProt P19525)
Protocol: as §1

SBK1 = SBK1 (Homo sapiens, UniProt Q52WX2)
Protocol: as §1

SGK2 = SGK2 (Homo sapiens, UniProt Q9HBY8)
Protocol: as §1

SRPK1 = SRPK1 (Homo sapiens, UniProt Q96SB4)
SRPK1, sequence (Q96SB4 whole entry): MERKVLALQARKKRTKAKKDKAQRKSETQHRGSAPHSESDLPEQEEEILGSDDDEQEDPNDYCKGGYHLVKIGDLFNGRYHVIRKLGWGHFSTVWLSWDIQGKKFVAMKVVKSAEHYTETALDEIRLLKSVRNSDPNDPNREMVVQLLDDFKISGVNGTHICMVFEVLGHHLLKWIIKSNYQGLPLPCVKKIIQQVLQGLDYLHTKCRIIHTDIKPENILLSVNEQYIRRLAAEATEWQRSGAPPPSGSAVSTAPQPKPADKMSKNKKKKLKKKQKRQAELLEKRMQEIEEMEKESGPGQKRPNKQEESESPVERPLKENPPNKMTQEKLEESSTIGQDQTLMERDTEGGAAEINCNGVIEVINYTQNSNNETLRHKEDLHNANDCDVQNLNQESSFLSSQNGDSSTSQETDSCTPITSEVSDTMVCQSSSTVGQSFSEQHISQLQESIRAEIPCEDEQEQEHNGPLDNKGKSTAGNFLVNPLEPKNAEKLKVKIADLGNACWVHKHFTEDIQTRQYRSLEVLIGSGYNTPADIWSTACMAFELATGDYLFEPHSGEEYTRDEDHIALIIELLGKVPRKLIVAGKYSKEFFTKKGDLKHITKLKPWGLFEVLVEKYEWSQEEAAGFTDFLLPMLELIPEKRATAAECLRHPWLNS
Protocol: as §1

MRCKA = MRCKA (Homo sapiens, UniProt Q5VT25)
Protocol: as §1

CSNK1A1 = CSNK1A1 (Homo sapiens, UniProt P48729)
Protocol: as §1

MAP3K2 = MAP3K2 (Homo sapiens, UniProt Q9Y2U5)
Protocol: as §1

ACVR1B = ACVR1B (Homo sapiens, UniProt P36896)
Protocol: as §1

PIK3CA = PIK3CA (Homo sapiens, UniProt P42336)
PIK3CA, sequence (P42336 whole entry): as the sequence (P42336 whole entry E545K) above, with K545E counted along it
Protocol: as §1

TIE1 = TIE1 (Homo sapiens, UniProt P35590)
Protocol: as §1

FGFR4 = FGFR4 (Homo sapiens, UniProt P22455)
Protocol: as §1

[2] = target: ABL1(T315I)-phosphorylated (Homo sapiens, UniProt P00519, T315I)
Protocol: as §1

STK36 = STK36 (Homo sapiens, UniProt Q9NRP7)
Protocol: as §1

CSF1R = CSF1R (Homo sapiens, UniProt P07333)
Protocol: as §1

PIK3CA(E545A) = PIK3CA(E545A) (Homo sapiens, UniProt P42336, E545A)
PIK3CA(E545A), sequence (P42336 whole entry E545A): as the sequence (P42336 whole entry E545K) above, with K545A counted along it
Protocol: as §1

ALK(L1196M) = ALK(L1196M) (Homo sapiens, UniProt Q9UM73, L1196M)
Protocol: as §1

FLT3(N841I) = FLT3(N841I) (Homo sapiens, UniProt P36888, N841I)
Protocol: as §1

CSNK1E = CSNK1E (Homo sapiens, UniProt P49674)
Protocol: as §1

CSNK1D = CSNK1D (Homo sapiens, UniProt P48730)
Protocol: as §1

CLK3, sequence (P49761 whole entry): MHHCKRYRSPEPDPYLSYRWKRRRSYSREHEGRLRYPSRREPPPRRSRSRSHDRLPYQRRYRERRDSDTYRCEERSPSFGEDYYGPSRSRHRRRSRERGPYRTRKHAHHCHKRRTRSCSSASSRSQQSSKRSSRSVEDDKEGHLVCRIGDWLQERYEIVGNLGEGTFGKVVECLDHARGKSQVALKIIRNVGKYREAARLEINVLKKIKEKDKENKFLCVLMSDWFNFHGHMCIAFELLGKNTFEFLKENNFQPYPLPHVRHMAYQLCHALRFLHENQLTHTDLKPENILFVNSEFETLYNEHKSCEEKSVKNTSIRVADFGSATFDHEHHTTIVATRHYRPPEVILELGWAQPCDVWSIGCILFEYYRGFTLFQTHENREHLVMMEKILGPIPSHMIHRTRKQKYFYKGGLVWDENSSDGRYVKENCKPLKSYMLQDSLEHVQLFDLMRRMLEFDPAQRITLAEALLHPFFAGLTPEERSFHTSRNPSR

Which remaining binding at 10 µM (PCTK1) does the source give for O=C1CCC(N2C(=O)c3cccc(NCCCCCCCCNC(=O)N4CC[C@H](NC5=Nc6cc(F)ccc6N(CC(F)F)c6ccc(Cl)cc65)C4)c3C2=O)C(=O)N1 (stereo partly drawn) [BJG-05-039, (3S)-3-((2-Chloro-5-(2,2-difluoroethyl)-8-fluoro-5H-dibenzo[b,e][1,4]diazepin-11-yl)amino)-N-(8-((2-(2,6-dioxopiperidin-3-yl)-1,3-dioxoisoindolin-4-yl)amino)octyl)pyrrolidine-1-carboxamide] here?
The remaining binding at 10 µM was 97%.

And the remaining binding at 10 µM (DCAMKL2)?
The remaining binding at 10 µM was 92%.

What about the remaining binding at 10 µM (CLK3) of the same compound?
Its remaining binding at 10 µM is 62%.

And the remaining binding at 10 µM (PKN1)?
Its remaining binding at 10 µM is 95%.

What about the remaining binding at 10 µM (PLK1) of the same compound?
The remaining binding at 10 µM was 82%.

What about the remaining binding at 10 µM (PIK3CA(E545K)) of the same compound?
The remaining binding at 10 µM was 100%.

What about the remaining binding at 10 µM (TIE2) of the same compound?
Its remaining binding at 10 µM is 98%.

And the remaining binding at 10 µM (KIT(V559D))?
Its remaining binding at 10 µM is 81%.

And the remaining binding at 10 µM (CDK4)?
The remaining binding at 10 µM was 86%.

What about the remaining binding at 10 µM (NEK6) of the same compound?
The remaining binding at 10 µM was 91%.

What about the remaining binding at 10 µM (TSSK3) of the same compound?
The remaining binding at 10 µM was 100%.

And the remaining binding at 10 µM (MTOR)?
Its remaining binding at 10 µM is 74%.

What about the remaining binding at 10 µM (ABL1-phosphorylated) of the same compound?
Its remaining binding at 10 µM is 100%.

And the remaining binding at 10 µM (ROCK2)?
Its remaining binding at 10 µM is 100%.

And the remaining binding at 10 µM [1]?
Its remaining binding at 10 µM is 78%.

And the remaining binding at 10 µM (TEC)?
The remaining binding at 10 µM was 82%.

What about the remaining binding at 10 µM (RIPK5) of the same compound?
Its remaining binding at 10 µM is 87%.

What about the remaining binding at 10 µM (PDPK1) of the same compound?
The remaining binding at 10 µM was 86%.

And the remaining binding at 10 µM (PRKR)?
The remaining binding at 10 µM was 81%.

What about the remaining binding at 10 µM (SBK1) of the same compound?
Its remaining binding at 10 µM is 82%.

And the remaining binding at 10 µM (SGK2)?
Its remaining binding at 10 µM is 76%.

And the remaining binding at 10 µM (SRPK1)?
Its remaining binding at 10 µM is 87%.

What about the remaining binding at 10 µM (MRCKA) of the same compound?
The remaining binding at 10 µM was 63%.

And the remaining binding at 10 µM (CSNK1A1)?
Its remaining binding at 10 µM is 93%.

And the remaining binding at 10 µM (MAP3K2)?
Its remaining binding at 10 µM is 76%.

What about the remaining binding at 10 µM (ACVR1B) of the same compound?
The remaining binding at 10 µM was 85%.

And the remaining binding at 10 µM (PIK3CA)?
Its remaining binding at 10 µM is 60%.

And the remaining binding at 10 µM (TIE1)?
The remaining binding at 10 µM was 62%.

And the remaining binding at 10 µM (FGFR4)?
Its remaining binding at 10 µM is 68%.

What about the remaining binding at 10 µM [2] of the same compound?
The remaining binding at 10 µM was 100%.

What about the remaining binding at 10 µM (STK36) of the same compound?
Its remaining binding at 10 µM is 82%.

What about the remaining binding at 10 µM (CSF1R) of the same compound?
Its remaining binding at 10 µM is 89%.

What about the remaining binding at 10 µM (PIK3CA(E545A)) of the same compound?
Its remaining binding at 10 µM is 100%.

And the remaining binding at 10 µM (ALK(L1196M))?
The remaining binding at 10 µM was 100%.

And the remaining binding at 10 µM (FLT3(N841I))?
The remaining binding at 10 µM was 100%.

What about the remaining binding at 10 µM (CSNK1E) of the same compound?
Its remaining binding at 10 µM is 61%.

And the remaining binding at 10 µM (CSNK1D)?
The remaining binding at 10 µM was 60%.
